In the supplement of paper PMC12669032:

How the values were obtained:
Experiment in all cases: growth AUC relative to DMSO control (fraction); higher = more growth (less inhibition)
Details in all cases: 24 h
Bacteroides uniformis = tested on: Bacteroides uniformis
Experimental: (§1)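 Validation screen: 11 independently purchased pesticides tested on 8 gut bacterial strains at 2.5–320 µM in mGAM, anaerobic, 37 °C, 24 h. Growth AUC normalised to DMSO controls, mean of 3 independent experiments.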

Clostridium difficile = tested on: Clostridium difficile
Experimental: as §1

Escherichia coli IAI1 = tested on: Escherichia coli IAI1
Experimental: as §1

Eubacterium rectale = tested on: Eubacterium rectale
Experimental: as §1

Lactobacillus gasseri = tested on: Lactobacillus gasseri
Experimental: as §1

[1] = tested on: Parabacteroides distasonis
Experimental: as §1

Roseburia intestinalis = tested on: Roseburia intestinalis
Experimental: as §1

Streptococcus salivarius = tested on: Streptococcus salivarius
Experimental: as §1

CC[C@H](C)[C@H]1O[C@]2(C=C[C@@H]1C)C[C@@H]1C[C@@H](C/C=C(\C)[C@@H](O[C@H]3C[C@H](OC)[C@@H](O[C@H]4C[C@H](OC)[C@@H](NC)[C@H](C)O4)[C@H](C)O3)[C@@H](C)/C=C/C=C3\CO[C@@H]4[C@H](O)C(C)=C[C@@H](C(=O)O1)[C@]34O)O2.O=C(O)c1ccccc1 [EMAMECTIN BENZOATE]
growth AUC
Details | Bacteroides uniformis | Clostridium difficile | Escherichia coli IAI1 | Eubacterium rectale | Lactobacillus gasseri | Roseburia intestinalis | Streptococcus salivarius | [1]
2.5 µM | 1.03 | 1.01 | 1.06 | 1.03 | 1.01 | 0.859 | 1.08 | 1.09
5 µM | 1.04 | 0.987 | 1.02 | 1.04 | 1.01 | 0.396 | 1 | 0.898
10 µM | 0.992 | 0.916 | 1 | 0.693 | 0.949 | 0.0369 | 1.02 | 0.487
20 µM | 1.03 | 0.967 | 0.979 | 0.0185 | 0.822 | 0.0348 | 0.938 | 0.0163
40 µM | 0.839 | 0.654 | 1.05 | 0.0159 | 0.848 | 0.0127 | 1.14 | 0.00619
80 µM | 0.669 | 0.0139 | 1.04 | 0.0289 | 1.02 | 0.00913 | 1.16 | 0.0234
160 µM | 0.732 | 0.0469 | 1.06 | 0.126 | 1.07 | 0.0441 | 1.27 | 0.0419

CCCN(CCOc1c(Cl)cc(Cl)cc1Cl)C(=O)n1ccnc1 [PROCHLORAZ]
growth AUC
Details | Bacteroides uniformis | Clostridium difficile | Escherichia coli IAI1 | Eubacterium rectale | Lactobacillus gasseri | Roseburia intestinalis | Streptococcus salivarius | [1]
2.5 µM | 1 | 0.989 | 1 | 0.748 | 1.01 | 0.993 | 1.01 | 0.957
5 µM | 0.994 | 0.977 | 0.987 | 0.524 | 1 | 1.02 | 0.995 | 0.858
10 µM | 0.938 | 0.956 | 0.966 | 0.397 | 0.944 | 0.949 | 0.973 | 0.68
20 µM | 0.92 | 1.01 | 0.956 | 0.125 | 0.931 | 0.718 | 0.945 | 0.608
40 µM | 0.886 | 0.875 | 0.988 | 0.0225 | 0.957 | 0.594 | 0.984 | 0.363
80 µM | 0.812 | 0.913 | 0.989 | 0.0308 | 0.903 | 0.0292 | 0.962 | 0.0195
160 µM | 0.767 | 0.391 | 0.983 | 0.0176 | 0.836 | 0.0197 | 0.935 | 0.0246

N#Cc1c(Cl)c(Cl)c(Cl)c(C#N)c1Cl [CHLOROTHALONIL]
growth AUC
Details | Bacteroides uniformis | Clostridium difficile | Escherichia coli IAI1 | Eubacterium rectale | Lactobacillus gasseri | Roseburia intestinalis | Streptococcus salivarius | [1]
2.5 µM | 1.04 | 1.03 | 1.02 | 1.07 | 1.02 | 0.978 | 1.08 | 1.13
5 µM | 1.01 | 1.01 | 0.986 | 0.894 | 1.03 | 1.01 | 0.963 | 1.04
10 µM | 0.981 | 0.963 | 1.01 | 0.836 | 1 | 0.91 | 1 | 0.921
20 µM | 0.889 | 0.993 | 0.974 | 0.593 | 0.925 | 0.713 | 0.907 | 0.961
